Reference: paper PMC7725003, “Systematically Studying the Optimal Amino Acid Distribution Patterns of the Amphiphilic Structure by Using the Ultrashort Amphiphiles” (Frontiers in Microbiology, 2020)
Where no end group is shown, it is not given here.

Columns and labels:
E. coli 25922 = assay type: cell-based, Escherichia coli; settings: 25922, 24 h
Outline: (§1)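 MIC = lowest peptide concentration giving 95% growth inhibition (A492) after 24 h at 37°C in MHB, inoculum 0.5–1 × 10^6 CFU mL^–1. Peptides serially diluted in 0.2% BSA. MBC = lowest concentration killing >99.9% of cells on overnight agar plating.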

E. coli O78 = assay type: cell-based, Escherichia coli; settings: O78, 24 h
Outline: as §1

E. coli UB1005 = assay type: cell-based, Escherichia coli; settings: UB1005, 24 h
Outline: as §1

S. typhimurium 14028 = assay type: cell-based, Salmonella typhimurium; settings: 14028, 24 h
Outline: as §1

S. typhimurium 7731 = assay type: cell-based, Salmonella typhimurium; settings: 7731, 24 h
Outline: as §1

S. pullorum 7913 = assay type: cell-based, Salmonella pullorum; settings: 7913, 24 h
Outline: as §1

P. aeruginosa 27853 = assay type: cell-based, Pseudomonas aeruginosa; settings: 27853, 24 h
Outline: as §1

E. coli K88 = settings: for MIC: MHB, 24 h 37°C, 95% growth inhibition; for MBC: value in brackets, >99.9% of cells killed
Experimental: (§2) The antimicrobial activities of the peptides were measured using a method adapted from the National Committee for Clinical Laboratory Standards (NCCLS) with some modifications ([Chou et al., 2016]). The specific procedure for these assays has been previously described. In brief, the bacterial cells were grown to a mid-logarithmic phase and diluted in MHB to an ultimate concentration of 0.5–1 × 10^6 CFU mL^–1. Subsequently, the peptides were consecutively diluted in a 0.2% BSA solution and then added to a bacterial solution in a 96-well plate at identical volumes. After incubation for 24 h at 37°C, the MICs were determined to be the lowest peptide concentration that inhibited 95% of the bacterial growth by monitoring the absorbance at 492 nm using a microplate reader. Subsequently, 50 μL of each incubation mixture was further transferred to agar plates and incubated overnight. […] Every assay was reproduced more than 3 times.

E. coli K99 = settings: for MIC: MHB, 24 h 37°C, 95% growth inhibition
Experimental: as §2

Gram-negative bacteria [1] = settings: for GM MIC: geometric mean of MICs, 9 Gram-negative strains (Table 2); for TI, Gram-negative bacteria: therapeutic index TI = MHC/GM MIC
Outline: (§3)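 Broth microdilution adapted from NCCLS: mid-log bacteria diluted in MHB to 0.5–1 × 10^6 CFU mL^–1, mixed with peptides serially diluted in 0.2% BSA. After 24 h at 37°C, MIC taken as the lowest concentration inhibiting 95% of growth by absorbance at 492 nm. Assays repeated more than 3 times.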

Gram-positive bacteria [2] = settings: for GM MIC: geometric mean of MICs, 7 Gram-positive strains (Table 2); for TI, Gram-positive bacteria: therapeutic index TI = MHC/GM MIC
Outline: as §3

S. aureus 25923 = assay type: cell-based, Staphylococcus aureus; settings: 25923, 24 h
Outline: as §1

S. aureus 29213 [3] = assay type: cell-based, Staphylococcus aureus; settings: 29213, 24 h
Outline: as §1

S. epidermidis 12228 = assay type: cell-based, Staphylococcus epidermidis; settings: 12228, 24 h
Outline: as §1

MRSA 43300 = assay type: cell-based, methicillin-resistant S. aureus; settings: 43300, 24 h
Outline: as §1

B. subtilis 63501 = assay type: cell-based, Bacillus subtilis; settings: 63501, 24 h
Outline: as §1

E. faecalis 29212 = assay type: cell-based, Enterococcus faecalis; settings: 29212, 24 h
Outline: as §1

[4] = tested on: Listeria monocytogenes CGMCC 1.1075; assay type: cell-based; settings: CGMCC 1.1075, 24 h
Outline: as §1

[5] = tested on: all of the tested bacterial strains; assay: Geometric mean of MICs, all tested bacterial strains; assay type: cell-based; settings: for GM, All: geometric mean of MICs across all tested strains
Outline: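 Mid-log bacteria at 0.5–1 × 10^6 CFU mL^–1 in MHB with peptides serially diluted in 0.2% BSA, 24 h at 37°C. MIC is the lowest concentration giving 95% growth inhibition by A492. MBC is the lowest giving >99.9% kill on agar subculture, and the GM is taken over all strains.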

E. coli ATCC 25922 = assay: Salt sensitivity assay (MIC); assay type: cell-based, Escherichia coli; settings: for MIC, FeCl3: 4 μM FeCl3; for MIC, NH4Cl: 6 μM NH4Cl; for MIC, ZnCl2: 8 μM ZnCl2; for MIC, MgCl2: 1 mM MgCl2; for MIC, CaCl2: 2 mM CaCl2; for MIC, KCl: 4.5 mM KCl; for MIC, NaCl: 150 mM NaCl; for MIC, Control: no added salt, three independent assays
Outline: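 The salt sensitivity of peptides was tested against E. coli ATCC 25922 using a modified NCCLS broth microdilution MIC method. Mid-log bacteria were diluted in MHB to 0.5–1 × 10^6 CFU mL^–1 and mixed in equal volumes with peptides serially diluted in 0.2% BSA in 96-well plates. Physiological salt was added where specified, and the assay was done three independent times.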

S. aureus 29213 [6] = assay: Salt sensitivity assay (MIC); assay type: cell-based, Staphylococcus aureus; settings: for MIC, FeCl3: 4 μM FeCl3; for MIC, NH4Cl: 6 μM NH4Cl; for MIC, ZnCl2: 8 μM ZnCl2; for MIC, MgCl2: 1 mM MgCl2; for MIC, CaCl2: 2 mM CaCl2; for MIC, KCl: 4.5 mM KCl; for MIC, NaCl: 150 mM NaCl
Outline: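 MICs determined by broth microdilution in MHB with 0.5–1 × 10^6 CFU/mL, peptides serially diluted in 0.2% BSA, 24 h at 37°C. Medium supplemented with physiological salts (150 mM NaCl, 4.5 mM KCl, 6 μM NH4Cl, 8 μM ZnCl2, 1 mM MgCl2, 2mM CaCl2, 4 μM FeCl3). MIC = lowest concentration inhibiting 95% growth (A492).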

Gram-negative bacteria [7] = settings: geometric mean of MBCs, 9 Gram-negative strains (Table 2)
Gram-positive bacteria [8] = settings: geometric mean of MBCs, 7 Gram-positive strains (Table 2)

LRRRRLLLL-NH2 [L11]
79.48 µM: GM, All [5]
70.66 µM: GM MBC (Gram-positive bacteria [8])
32 µM: MIC (E. coli K88)
4.42: TI, Gram-positive bacteria (Gram-positive bacteria [2])
118.51 µM: GM MBC (Gram-negative bacteria [7])
2.52: TI, Gram-negative bacteria (Gram-negative bacteria [1])
128 µM: MBC (E. coli O78)
>64 µM: MIC (E. coli UB1005) | MIC (S. pullorum 7913) | MIC (S. aureus 29213 [3]) | MIC (MRSA 43300)
101.59 µM: GM MIC (Gram-negative bacteria [1])
8 µM: MIC (B. subtilis 63501) | MIC [4]
> 64 µM: MIC (E. coli 25922) | MIC (S. typhimurium 14028) | MIC (S. typhimurium 7731) | MIC (P. aeruginosa 27853) | MIC (E. coli K99) | MIC (S. aureus 25923) | MIC (S. epidermidis 12228) | MIC (E. faecalis 29212) | MIC, FeCl3 (E. coli ATCC 25922) | MIC, NH4Cl (E. coli ATCC 25922) | MIC, ZnCl2 (E. coli ATCC 25922) | MIC, MgCl2 (E. coli ATCC 25922) | MIC, CaCl2 (E. coli ATCC 25922) | MIC, KCl (E. coli ATCC 25922) | MIC, NaCl (E. coli ATCC 25922) | MIC, Control (E. coli ATCC 25922) | MIC, FeCl3 (S. aureus 29213 [6]) | MIC, NH4Cl (S. aureus 29213 [6]) | MIC, ZnCl2 (S. aureus 29213 [6]) | MIC, MgCl2 (S. aureus 29213 [6]) | MIC, CaCl2 (S. aureus 29213 [6]) | MIC, KCl (S. aureus 29213 [6]) | MIC, NaCl (S. aureus 29213 [6]) | MIC, Control (S. aureus 29213 [6]; no added salt, three independent assays)
3.22: TI, All ([5]; therapeutic index TI = MHC/GM MIC)
57.97 µM: GM MIC (Gram-positive bacteria [2])
16 µM: MBC (B. subtilis 63501) | MBC [4]
64 µM: MIC (E. coli O78) | MBC (E. coli K88)

LLRLLRRRL-NH2 [L1]
> 64 µM: MIC (P. aeruginosa 27853) | MIC [4] | MIC, FeCl3 (S. aureus 29213 [6]) | MIC, CaCl2 (S. aureus 29213 [6]) | MIC, NaCl (S. aureus 29213 [6])
128 µM: MBC (E. faecalis 29212)
2 µM: MIC (B. subtilis 63501)
16 µM: MBC (E. coli 25922) | MBC (E. coli O78) | MIC (E. coli UB1005) | MIC (S. typhimurium 14028) | MIC (S. typhimurium 7731) | MBC (S. pullorum 7913) | MBC (E. coli K88) | MBC (E. coli K99; value in brackets, >99.9% of cells killed) | MIC (S. aureus 29213 [3]) | MIC (S. epidermidis 12228) | MIC (MRSA 43300) | MIC, KCl (E. coli ATCC 25922)
18.66: TI, Gram-negative bacteria (Gram-negative bacteria [1])
39.01 µM: GM MBC (Gram-positive bacteria [8])
64 µM: MBC (S. aureus 25923) | MIC (E. faecalis 29212) | MIC, NaCl (E. coli ATCC 25922) | MIC, NH4Cl (S. aureus 29213 [6]) | MIC, ZnCl2 (S. aureus 29213 [6]) | MIC, MgCl2 (S. aureus 29213 [6]) | MIC, KCl (S. aureus 29213 [6])
32 µM: MBC (E. coli UB1005) | MBC (S. typhimurium 14028) | MBC (S. typhimurium 7731) | MIC (S. aureus 25923) | MBC (S. aureus 29213 [3]) | MBC (S. epidermidis 12228) | MBC (MRSA 43300) | MIC, CaCl2 (E. coli ATCC 25922)
4 µM: MBC (B. subtilis 63501) | MIC, FeCl3 (E. coli ATCC 25922) | MIC, NH4Cl (E. coli ATCC 25922)
2.97: TI, Gram-positive bacteria (Gram-positive bacteria [2])
8 µM: MIC (E. coli 25922) | MIC (E. coli O78) | MIC (S. pullorum 7913) | MIC (E. coli K88) | MIC (E. coli K99) | MIC, ZnCl2 (E. coli ATCC 25922) | MIC, MgCl2 (E. coli ATCC 25922) | MIC, Control (E. coli ATCC 25922)
25.40 µM: GM MBC (Gram-negative bacteria [7])
16.71 µM: GM, All [5]
13.72 µM: GM MIC (Gram-negative bacteria [1])
21.53 µM: GM MIC (Gram-positive bacteria [2])
